Tests used:
[1] = test system: ECHORC (Watergrass (Calif.)); assay: Postemergence weed control under flooded paddy conditions; format: in vivo, Echinochloa oryzoides; conditions: postemergence weeds
Outline: (§1)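 Injury ratings (0–9 scale covering stand, vigor, malformation, size, chlorosis and overall appearance versus control) were made three to four weeks after treatment. Test material, about 0.0313 to 0.500 kg/ha a.i. in 50/50 v/v aqueous/acetone, was added to flood water 1.5 to 3 cm deep over 3 to 5 cm weeds and 1.5 to 2.5 leaf rice.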

[2] = test system: SETVI (Foxtail, Green); assay: Preemergence herbicidal evaluation; format: in vivo, Setaria viridis; conditions: rated 4-5 weeks after treatment; for SETVI rating: preemergence, 0-9 scale
Outline: (§2)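 Visual 0-9 rating vs control (stand, vigor, malformation, size, chlorosis, overall appearance), scored 4-5 wk after spraying. Seeded soil cups were treated preemergence with compound in aqueous acetone, ~0.0156-0.500 kg/ha equivalent.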

[3] = test system: MOOVA (Monochoria); assay: Preemergence weed control under flooded paddy conditions; format: in vivo, Monochoria vaginalis; conditions: rated 3-4 weeks after treatment
Outline: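 Flooded-pot preemergence screen with silt loam and seeds in the upper 0.5 cm. Dose about 0.0313 to 0.500 kg/ha, delivered into flood water; visual 0-9 score after 3 to 4 weeks.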

[4] = test system: ABUTH (Velvetleaf); assay: Postemergence herbicidal evaluation; format: in vivo, Abutilon theophrasti; conditions: for herbicidal rating ABUTH: postemergence
Outline: (§3)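 Each compound, dispersed in an acetone/water mix (50/50) carrying 0.5% TWEEN 20, is nozzle-sprayed at 40 psi on approximately two-week-old seedlings at about 0.0156–0.500 kg/ha. Plants are assessed 4–5 weeks afterward on a 0–9 scale relative to control; duplicate tests are averaged.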

[5] = test system: ECHORC (Watergrass (Calif.)); assay: Preemergence weed control under flooded paddy conditions; format: in vivo, Echinochloa oryzoides; conditions: rated 3-4 weeks after treatment
Outline: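 Herbicidal effect is scored visually on a 0-9 scale against an untreated control, three to four weeks after compounds are pipetted into the flood water (1.5 to 3 cm deep) over seeds planted in silt loam at 0.5 cm depth. Rates: about 0.0313 to 0.500 kg/ha.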

[6] = test system: CYPIR (Rice Flatsedge); assay: Postemergence weed control under flooded paddy conditions; format: in vivo, Cyperus iria; conditions: postemergence weeds
Outline: as §1

[7] = test system: TRZAWR (Wheat, Winter, cv Riband); assay: Preemergence herbicidal evaluation; format: in vivo, Triticum aestivum; conditions: rated 4-5 weeks after treatment; for TRZAWR rating: preemergence, 0-9 scale
Outline: as §2

[8] = test system: ORYSAT (Rice, Tebonnet); assay: Preemergence herbicidal evaluation; format: in vivo, Oryza sativa, (L.) Tebonnet; conditions: rated 4-5 weeks after treatment; for ORYSAT rating: preemergence, 0-9 scale
Outline: as §2

[9] = test system: ECHCG (Barnyardgrass); assay: Preemergence herbicidal evaluation; format: in vivo, Echinochloa crus-galli; conditions: rated 4-5 weeks after treatment; for ECHCG rating: preemergence, 0-9 scale
Outline: as §2

[10] = test system: IPOHE (Morningglory, Ivyleaf); assay: Postemergence herbicidal evaluation; format: in vivo, Ipomoea hederacea; conditions: for herbicidal rating IPOHE: postemergence
Outline: as §3

[11] = test system: TRZAWR (Wheat, Winter, cv Riband); assay: Postemergence herbicidal evaluation; format: in vivo, Triticum aestivum; conditions: for herbicidal rating TRZAWR: postemergence
Outline: as §3

[12] = test system: CHEAL (Lambsquarters, Common); assay: Preemergence herbicidal evaluation; format: in vivo, Chenopodium album; conditions: rated 4-5 weeks after treatment; for CHEAL rating: preemergence, 0-9 scale
Outline: as §2

[13] = test system: IPOHE (Morningglory, Ivyleaf); assay: Preemergence herbicidal evaluation; format: in vivo, Ipomoea hederacea; conditions: rated 4-5 weeks after treatment; for IPOHE rating: preemergence, 0-9 scale
Outline: as §2

[14] = rate 0.0313 kg/ha, 3-4 weeks after treatment
[15] = rate 0.0625 kg/ha, 3-4 weeks after treatment
[16] = rate 0.1250 kg/ha, 3-4 weeks after treatment
[17] = rate 0.2500 kg/ha, 3-4 weeks after treatment
[18] = Rate 0.0313 kg/ha, rated 3 to 4 weeks after treatment
[19] = Rate 0.0625 kg/ha, rated 3 to 4 weeks after treatment
[20] = Rate 0.1250 kg/ha, rated 3 to 4 weeks after treatment
[21] = Rate 0.2500 kg/ha, rated 3 to 4 weeks after treatment

## CCOC(=O)CN1C(=O)C(CC(=O)O)O/C1=N/c1cc(-n2c(=O)cc(C(F)(F)F)n(C)c2=O)c(F)cc1Cl (centres unmarked) [Compound 41, 2-{{2-Chloro-5-[3,6-dihydro-3-methyl-2,6-dioxo-4-(trifluoromethyl)-1(2H)-pyrimidinyl]-4-fluoro-phenyl}imino}-4-oxo-3,5-oxazolidinediacetic acid, 3-ethyl ester]
[1]; [14]
  Herbicidal rating ECHORC: 3.0
[1]; [15]
  Herbicidal rating ECHORC: 4.0
[1]; [16]
  Herbicidal rating ECHORC: 6.0
[1]; [17]
  Herbicidal rating ECHORC: 7.0
[2]; rate 0.0156 kg/ha
  Preemergence herbicidal rating SETVI: 0.0
[2]; rate 0.0313 kg/ha
  Preemergence herbicidal rating SETVI: 0.0
[2]; rate 0.0625 kg/ha
  Preemergence herbicidal rating SETVI: 1.0
[2]; rate 0.1250 kg/ha
  Preemergence herbicidal rating SETVI: 1.0
[2]; rate 0.2500 kg/ha
  Preemergence herbicidal rating SETVI: 9.0
[3]; 0.0313 kg/ha
  Herbicidal rating MOOVA: 6.0
[3]; 0.0625 kg/ha
  Herbicidal rating MOOVA: 9.0
[3]; 0.1250 kg/ha
  Herbicidal rating MOOVA: 9.0
[3]; 0.2500 kg/ha
  Herbicidal rating MOOVA: 9.0
[4]; Rate 0.0158 kg/ha
  Postemergence herbicidal rating ABUTH: 9.0
[4]; Rate 0.0315 kg/ha
  Postemergence herbicidal rating ABUTH: 9.0
[4]; Rate 0.0630 kg/ha
  Postemergence herbicidal rating ABUTH: 9.0
[5]; 0.0313 kg/ha
  Herbicidal rating ECHORC: 3.0
[5]; 0.0625 kg/ha
  Herbicidal rating ECHORC: 4.0
[5]; 0.1250 kg/ha
  Herbicidal rating ECHORC: 6.0
[5]; 0.2500 kg/ha
  Herbicidal rating ECHORC: 7.0
[6]; [14]
  Herbicidal rating CYPIR: 0.0
[6]; [15]
  Herbicidal rating CYPIR: 0.0
[6]; [16]
  Herbicidal rating CYPIR: 0.0
[6]; [17]
  Herbicidal rating CYPIR: 4.0
[7]; rate 0.0156 kg/ha
  Preemergence herbicidal rating TRZAWR: 0.0
[7]; rate 0.0313 kg/ha
  Preemergence herbicidal rating TRZAWR: 0.0
[7]; rate 0.0625 kg/ha
  Preemergence herbicidal rating TRZAWR: 0.0
[7]; rate 0.1250 kg/ha
  Preemergence herbicidal rating TRZAWR: 0.0
[7]; rate 0.2500 kg/ha
  Preemergence herbicidal rating TRZAWR: 0.0
[8]; rate 0.0156 kg/ha
  Preemergence herbicidal rating ORYSAT: 0.0
[8]; rate 0.0313 kg/ha
  Preemergence herbicidal rating ORYSAT: 0.0
[8]; rate 0.0625 kg/ha
  Preemergence herbicidal rating ORYSAT: 0.0
[8]; rate 0.1250 kg/ha
  Preemergence herbicidal rating ORYSAT: 0.0
[8]; rate 0.2500 kg/ha
  Preemergence herbicidal rating ORYSAT: 0.0
[9]; rate 0.0156 kg/ha
  Preemergence herbicidal rating ECHCG: 0.0
[9]; rate 0.0313 kg/ha
  Preemergence herbicidal rating ECHCG: 0.0
[9]; rate 0.0625 kg/ha
  Preemergence herbicidal rating ECHCG: 0.0
[9]; rate 0.1250 kg/ha
  Preemergence herbicidal rating ECHCG: 0.0
[9]; rate 0.2500 kg/ha
  Preemergence herbicidal rating ECHCG: 2.0
[10]; Rate 0.0158 kg/ha
  Postemergence herbicidal rating IPOHE: 9.0
[10]; Rate 0.0315 kg/ha
  Postemergence herbicidal rating IPOHE: 9.0
[10]; Rate 0.0630 kg/ha
  Postemergence herbicidal rating IPOHE: 9.0
[11]; Rate 0.0158 kg/ha
  Postemergence herbicidal rating TRZAWR: 4.0
[11]; Rate 0.0315 kg/ha
  Postemergence herbicidal rating TRZAWR: 4.0
[11]; Rate 0.0630 kg/ha
  Postemergence herbicidal rating TRZAWR: 5.0
[12]; rate 0.0156 kg/ha
  Preemergence herbicidal rating CHEAL: 0.0
[12]; rate 0.0313 kg/ha
  Preemergence herbicidal rating CHEAL: 4.0
[12]; rate 0.0625 kg/ha
  Preemergence herbicidal rating CHEAL: 9.0
[12]; rate 0.1250 kg/ha
  Preemergence herbicidal rating CHEAL: 9.0
[12]; rate 0.2500 kg/ha
  Preemergence herbicidal rating CHEAL: 9.0
[13]; rate 0.0156 kg/ha
  Preemergence herbicidal rating IPOHE: 0.0
[13]; rate 0.0313 kg/ha
  Preemergence herbicidal rating IPOHE: 0.0
[13]; rate 0.0625 kg/ha
  Preemergence herbicidal rating IPOHE: 7.0
[13]; rate 0.1250 kg/ha
  Preemergence herbicidal rating IPOHE: 9.0
[13]; rate 0.2500 kg/ha
  Preemergence herbicidal rating IPOHE: 9.0

## CCOC(=O)CN1C(=O)C(CC(=O)NS(=O)(=O)CC)SC1=Nc1cc(-n2c(=O)cc(C(F)(F)F)n(C)c2=O)c(F)cc1Cl (centres unmarked) [Compound 103, Ethyl 2-{{2-chloro-5-[3,6-dihydro-3-methyl-2,6-dioxo-4-(trifluoromethyl)-1(2H)-pyrimidinyl]-4-fluorophenyl}imino}-5-{[(ethylsulfonyl)carbamoyl]-methyl}-4-oxo-3-thiazolidineacetate]
[1]; [18]
  Herbicidal rating ECHORC: 4.0
[1]; [19]
  Herbicidal rating ECHORC: 4.0
[1]; [20]
  Herbicidal rating ECHORC: 5.0
[1]; [21]
  Herbicidal rating ECHORC: 6.0
[2]; 0.0313 kg/ha
  SETVI rating: 0.0
[2]; 0.0625 kg/ha
  SETVI rating: 0.0
[2]; 0.1250 kg/ha
  SETVI rating: 3.0
[2]; 0.2500 kg/ha
  SETVI rating: 3.0
[2]; 0.5000 kg/ha
  SETVI rating: 9.0
[3]; 0.0313 kg/ha
  MOOVA herbicidal effect rating: 5.0
[3]; 0.0625 kg/ha
  MOOVA herbicidal effect rating: 7.0
[3]; 0.1250 kg/ha
  MOOVA herbicidal effect rating: 9.0
[3]; 0.2500 kg/ha
  MOOVA herbicidal effect rating: 9.0
[4]; rate 0.0156 kg/ha
  herbicidal rating ABUTH: 9.0
[4]; rate 0.0313 kg/ha
  herbicidal rating ABUTH: 9.0
[4]; rate 0.0625 kg/ha
  herbicidal rating ABUTH: 9.0
[4]; rate 0.1250 kg/ha
  herbicidal rating ABUTH: 9.0
[5]; 0.0313 kg/ha
  ECHORC herbicidal effect rating: 4.0
[5]; 0.0625 kg/ha
  ECHORC herbicidal effect rating: 4.0
[5]; 0.1250 kg/ha
  ECHORC herbicidal effect rating: 5.0
[5]; 0.2500 kg/ha
  ECHORC herbicidal effect rating: 6.0
[6]; [18]
  Herbicidal rating CYPIR: 4.0
[6]; [19]
  Herbicidal rating CYPIR: 6.0
[6]; [20]
  Herbicidal rating CYPIR: 9.0
[6]; [21]
  Herbicidal rating CYPIR: 9.0
[7]; 0.0313 kg/ha
  TRZAWR rating: 0.0
[7]; 0.0625 kg/ha
  TRZAWR rating: 0.0
[7]; 0.1250 kg/ha
  TRZAWR rating: 0.0
[7]; 0.2500 kg/ha
  TRZAWR rating: 0.0
[7]; 0.5000 kg/ha
  TRZAWR rating: 1.0
[8]; 0.0313 kg/ha
  ORYSAT rating: 0.0
[8]; 0.0625 kg/ha
  ORYSAT rating: 0.0
[8]; 0.1250 kg/ha
  ORYSAT rating: 0.0
[8]; 0.2500 kg/ha
  ORYSAT rating: 0.0
[8]; 0.5000 kg/ha
  ORYSAT rating: 2.0
[9]; 0.0313 kg/ha
  ECHCG rating: 0.0
[9]; 0.0625 kg/ha
  ECHCG rating: 0.0
[9]; 0.1250 kg/ha
  ECHCG rating: 0.0
[9]; 0.2500 kg/ha
  ECHCG rating: 0.0
[9]; 0.5000 kg/ha
  ECHCG rating: 2.0
[10]; rate 0.0156 kg/ha
  herbicidal rating IPOHE: 9.0
[10]; rate 0.0313 kg/ha
  herbicidal rating IPOHE: 9.0
[10]; rate 0.0625 kg/ha
  herbicidal rating IPOHE: 9.0
[10]; rate 0.1250 kg/ha
  herbicidal rating IPOHE: 9.0
[11]; rate 0.0156 kg/ha
  herbicidal rating TRZAWR: 3.5
[11]; rate 0.0313 kg/ha
  herbicidal rating TRZAWR: 6.0
[11]; rate 0.0625 kg/ha
  herbicidal rating TRZAWR: 7.5
[11]; rate 0.1250 kg/ha
  herbicidal rating TRZAWR: 7.5
[12]; 0.0313 kg/ha
  CHEAL rating: 0.0
[12]; 0.0625 kg/ha
  CHEAL rating: 4.0
[12]; 0.1250 kg/ha
  CHEAL rating: 9.0
[12]; 0.2500 kg/ha
  CHEAL rating: 9.0
[12]; 0.5000 kg/ha
  CHEAL rating: 9.0
[13]; 0.0313 kg/ha
  IPOHE rating: 0.0
[13]; 0.0625 kg/ha
  IPOHE rating: 0.0
[13]; 0.1250 kg/ha
  IPOHE rating: 3.0
[13]; 0.2500 kg/ha
  IPOHE rating: 5.0
[13]; 0.5000 kg/ha
  IPOHE rating: 9.0

From patent publication US20020137929A1, “1 - (3-heterocyclylphenyl) isothiourea, -isourea, -guanidine and -amidine herbicidal agents” (Intellectual Property Department, BASF Aktiengesellschaft, priority 1998, published 2002)
